Numbers after ± are expanded uncertainties. One block for each molecule: values may come before it.
Assays:
[1] = excess molar enthalpy (molar enthalpy of mixing); xn = mol fraction of the nth substance listed; conditions: 298.15 K, 101 kPa, Liquid, Calvet calorimetry
[2] = 298.15 K; 101.33 kPa; Liquid; Vibrating tube method
[3] = refractive index (Na D-line) (dimensionless); conditions: 298.15 K; 101.33 kPa; Liquid; Standard Abbe refractometry

Compound: OCc1ccccc1 [benzenemethanol] + CCCCCO
- excess molar enthalpy ([1]; x1 = 0.1044): 0.0957 ± 0.0024 kJ/mol
- excess molar enthalpy ([1]; x1 = 0.1968): 0.169 ± 0.0039 kJ/mol
- excess molar enthalpy ([1]; x1 = 0.2902): 0.226 ± 0.0051 kJ/mol
- excess molar enthalpy ([1]; x1 = 0.3864): 0.266 ± 0.0059 kJ/mol
- excess molar enthalpy ([1]; x1 = 0.4838): 0.285 ± 0.0063 kJ/mol
- excess molar enthalpy ([1]; x1 = 0.5999): 0.271 ± 0.006 kJ/mol
- excess molar enthalpy ([1]; x1 = 0.6988): 0.241 ± 0.0054 kJ/mol
- excess molar enthalpy ([1]; x1 = 0.7995): 0.186 ± 0.0042 kJ/mol
- excess molar enthalpy ([1]; x1 = 0.8992): 0.106 ± 0.0026 kJ/mol

Compound: OCc1ccccc1 [benzenemethanol] + CO
- excess molar enthalpy ([1]; x1 = 0.07): -0.0152 ± 0.0009 kJ/mol
- excess molar enthalpy ([1]; x1 = 0.1388): -0.0334 ± 0.0012 kJ/mol
- excess molar enthalpy ([1]; x1 = 0.2057): -0.057 ± 0.0016 kJ/mol
- excess molar enthalpy ([1]; x1 = 0.2728): -0.0792 ± 0.002 kJ/mol
- excess molar enthalpy ([1]; x1 = 0.3404): -0.101 ± 0.0025 kJ/mol
- excess molar enthalpy ([1]; x1 = 0.3992): -0.12 ± 0.0029 kJ/mol
- excess molar enthalpy ([1]; x1 = 0.4995): -0.141 ± 0.0033 kJ/mol
- excess molar enthalpy ([1]; x1 = 0.5964): -0.144 ± 0.0034 kJ/mol
- excess molar enthalpy ([1]; x1 = 0.6972): -0.136 ± 0.0032 kJ/mol
- excess molar enthalpy ([1]; x1 = 0.7998): -0.108 ± 0.0026 kJ/mol
- excess molar enthalpy ([1]; x1 = 0.9028): -0.0615 ± 0.0017 kJ/mol

Compound: OCc1ccccc1 [benzenemethanol] + CCCO
- excess molar enthalpy ([1]; x1 = 0.0984): 0.0486 ± 0.0014 kJ/mol
- excess molar enthalpy ([1]; x1 = 0.1964): 0.0847 ± 0.0021 kJ/mol
- excess molar enthalpy ([1]; x1 = 0.2873): 0.106 ± 0.0026 kJ/mol
- excess molar enthalpy ([1]; x1 = 0.3999): 0.124 ± 0.0029 kJ/mol
- excess molar enthalpy ([1]; x1 = 0.4987): 0.119 ± 0.0028 kJ/mol
- excess molar enthalpy ([1]; x1 = 0.5993): 0.107 ± 0.0026 kJ/mol
- excess molar enthalpy ([1]; x1 = 0.6983): 0.0867 ± 0.0022 kJ/mol
- excess molar enthalpy ([1]; x1 = 0.7996): 0.0614 ± 0.0017 kJ/mol
- excess molar enthalpy ([1]; x1 = 0.8988): 0.0323 ± 0.0011 kJ/mol

Compound: OCc1ccccc1 [benzenemethanol] + CCCCO
- excess molar enthalpy ([1]; x1 = 0.0976): 0.0849 ± 0.0022 kJ/mol
- excess molar enthalpy ([1]; x1 = 0.1973): 0.149 ± 0.0035 kJ/mol
- excess molar enthalpy ([1]; x1 = 0.295): 0.196 ± 0.0044 kJ/mol
- excess molar enthalpy ([1]; x1 = 0.396): 0.221 ± 0.005 kJ/mol
- excess molar enthalpy ([1]; x1 = 0.4931): 0.231 ± 0.0052 kJ/mol
- excess molar enthalpy ([1]; x1 = 0.6029): 0.212 ± 0.0048 kJ/mol
- excess molar enthalpy ([1]; x1 = 0.7039): 0.179 ± 0.0041 kJ/mol
- excess molar enthalpy ([1]; x1 = 0.8026): 0.133 ± 0.0031 kJ/mol
- excess molar enthalpy ([1]; x1 = 0.9017): 0.0726 ± 0.0019 kJ/mol

Compound: OCc1ccccc1 [benzenemethanol] + CCO
- excess molar enthalpy ([1]; x1 = 0.0746): 0.0734 ± 0.0019 kJ/mol
- excess molar enthalpy ([1]; x1 = 0.1514): 0.131 ± 0.0031 kJ/mol
- excess molar enthalpy ([1]; x1 = 0.2275): 0.171 ± 0.0039 kJ/mol
- excess molar enthalpy ([1]; x1 = 0.3029): 0.198 ± 0.0045 kJ/mol
- excess molar enthalpy ([1]; x1 = 0.3785): 0.214 ± 0.0048 kJ/mol
- excess molar enthalpy ([1]; x1 = 0.4855): 0.223 ± 0.005 kJ/mol
- excess molar enthalpy ([1]; x1 = 0.5857): 0.208 ± 0.0047 kJ/mol
- excess molar enthalpy ([1]; x1 = 0.6883): 0.177 ± 0.004 kJ/mol
- excess molar enthalpy ([1]; x1 = 0.7915): 0.129 ± 0.0031 kJ/mol
- excess molar enthalpy ([1]; x1 = 0.8949): 0.0717 ± 0.0019 kJ/mol

Compound: OCc1ccccc1 [benzenemethanol] + CCCCCCO
- excess molar enthalpy ([1]; x1 = 0.0954): 0.104 ± 0.0026 kJ/mol
- excess molar enthalpy ([1]; x1 = 0.1959): 0.198 ± 0.0045 kJ/mol
- excess molar enthalpy ([1]; x1 = 0.291): 0.271 ± 0.006 kJ/mol
- excess molar enthalpy ([1]; x1 = 0.3901): 0.324 ± 0.0071 kJ/mol
- excess molar enthalpy ([1]; x1 = 0.5072): 0.344 ± 0.0076 kJ/mol
- excess molar enthalpy ([1]; x1 = 0.598): 0.342 ± 0.0075 kJ/mol
- excess molar enthalpy ([1]; x1 = 0.6996): 0.31 ± 0.0068 kJ/mol
- excess molar enthalpy ([1]; x1 = 0.8022): 0.241 ± 0.0054 kJ/mol
- excess molar enthalpy ([1]; x1 = 0.8986): 0.145 ± 0.0034 kJ/mol

Now from value to molecule:

- mass density [2]: 805.75 ± 0.12 kg/m3
- refractive index [3]: 1.3974 ± 0.0005
Compound: CCCCO [butan-1-ol]

- mass density [2]: 810.88 ± 0.24 kg/m3
- refractive index [3]: 1.4088 ± 0.0005
Compound: CCCCCO [pentan-1-ol]

- mass density [2]: 815.2 ± 0.64 kg/m3
- refractive index [3]: 1.4165 ± 0.0006
Compound: CCCCCCO [hexan-1-ol]

- mass density [2]: 799.51 ± 0.12 kg/m3
- refractive index [3]: 1.3833 ± 0.0005
Compound: CCCO [propan-1-ol]

- mass density [2]: 785.15 ± 0.12 kg/m3
- refractive index [3]: 1.3595 ± 0.0005
Compound: CCO [ethanol]

- mass density [2]: 786.5 ± 0.15 kg/m3
- refractive index [3]: 1.3266 ± 0.0005
Compound: CO [methanol]

- mass density [2]: 1041.99 ± 0.26 kg/m3
- refractive index [3]: 1.5381 ± 0.0005
Compound: OCc1ccccc1 [benzenemethanol]

From the NIST ThermoML archive (doi:10.1021/je100095p)
